Reference: patent US9410142B2, “Dendrimer-based excipients for the attenuation of protein aggregation” (Massachusetts Institute of Technology, priority 2010, dated 2016)
“Also recorded” adds a separate entry of the source. Each block holds one compound with its values, some of them ahead of it.

Columns and labels:
Concanavalin A (Con A) = Concanavalin A (Con A) (Canavalia ensiformis, UniProt P02866); test: Con A aggregation / shelf-life at pH 6.5 and 37° C.; assay type: physicochemical; conditions: for Con A t95/t95, 0 (Shelf-Life Extension Factor): isotonic concentrations, 40 mM sodium phosphate pH 6.5, 37° C., time for 5% loss of protein vs no additive
Method: This Shelf-Life Extension Factor was determined by comparing the length of time, t95, for a 5% loss of protein when in the presence of the compounds to the original length of time, t95,0 for a 5% loss. For comparison purposes, isotonic concentrations (as determined by VPO) of the compounds were used and Shelf-Life Extension Factor values for commonly used excipients at isotonic concentrations are shown as well. Shelf-life values of aCgn were determined at 52.5° C. and at 37° C. for Con A.

[1] = target: T1, α-chymotrypsinogen A (aCgn) (Bos taurus, UniProt P00766); test: aCgn aggregation (monomer loss) at 52.5° C. by size exclusion HPLC; assay type: physicochemical, Bovine; conditions: for aCgn t95/t95, 0 (Shelf-Life Extension Factor): isotonic concentrations, 20 mM sodium citrate pH 5, 52.5° C., time for 5% loss of protein vs no additive; for aCgn aggregation suppression compared with other salt forms / generations (FIG. 5, 6, 8): 10 mg/mL aCgn, pH 5, 52.5° C.; for rate of aCgn monomer loss compared to the reference solution: additive 0.05 M
Method: The aggregation of aCgn was accelerated by incubating samples at an elevated temperature. […] In addition to all aggregation experiments being conducted at that temperature, all samples contained 10 mg/mL aCgn, held at pH 5.0 using a 20 mM sodium citrate buffer. 50 μL aliquots of each protein-cosolute mixture were placed in 0.2 mL polymerase chain reaction (PCR) tubes and then incubated in a Bio-Rad Mycycler thermal cycler with a timer initiated when the thermal cycler reached the desired temperature. Each series contained 12 samples and up to 8 different mixtures were tested at the same time during any given experiment. Samples were removed periodically and immediately placed in an ice bath to quench the aggregation reaction. The length of each experiment was planned so that the extent of reaction was such that at least 20% of the protein aggregated, making changes in the rate of aggregation pronounced. After at least five minutes in the ice bath, the samples were briefly spun in a minicentrifuge to remove precipitated aggregates and then transferred to autosampler vials.
All aCgn samples were first treated with phenylmethylsulfonyl fluoride to inhibit residual amounts of active enzyme and, after dialysis, solutions were frozen, rather than lyophilized, in 0.3 mL aliquots and used within 6 months. […] Solutions for the aggregation study were prepared by first preparing a solution of the cosolute of interest in a 20 mM sodium citrate pH 5 buffer at a concentration double that of interest (adjusting the pH to 5 if needed with the appropriate acid or an 8 M sodium hydroxide solution), then mixing 0.3 mL of this solution with 0.3 mL of a thawed aCgn solution. This solution was then divided into twelve aliquots, each 50 μL in volume, and incubated at an elevated temperature, as described below.
15 μL, of each aCgn sample were injected into an Agilent 1200 series HPLC, equipped with a Zorbax GF-250 (4.6×250 mm, 4 micron) size exclusion column and a UV-Vis detector, during a sequence. The HPLC mobile phase contained 25 mM citric acid monohydrate, 25 mM sodium acetate, and 200 mM sodium chloride with the pH adjusted to 4.0 using sodium hydroxide. The flow rate was set at 1 mL/min and samples were monitored at 280 nm.
Peak area at each time point was compared to the peak area for an unstressed sample to create a monomer loss profile normalized with respect to the initial concentration. Each profile was compared to a profile for a sample containing no cosolute to determine the change in aggregation rate upon addition of the cosolute. For a control, each aggregation experimental setup had one protein solution that contained no cosolute to verify that the baseline aggregation rate remained constant amongst all experiments.
The most notable consequence of perturbing a protein's environment is the enhancement or inhibition of protein aggregation. Deyoung L R et al. (1993) Accounts Chem Res 26:614-620; Fink A L (1998) Fold Des 3:R9-R23. The guanidinium-modified dendrimers were added to model protein solutions and incubated at an elevated temperature to determine how they influence the rate of this degradation pathway. […] At low dendrimer concentrations (0.05 M), the rate of monomer loss in the presence of the surface-modified dendrimer is slower than when compared to the reference solution. However, this aggregation rate reduction is insignificant when compared to the rate reduction induced by a high concentration of other commonly used additives such as arginine hydrochloride (ArgHCl), which is also depicted in the figure. Furthermore, as the concentration of the surface-modified dendrimer is increased, the aggregation rate reduction decreases until ultimately, the rate of aggregation is increased. At a concentration of 0.2 M, the surface-modified dendrimer induced rapid aggregation, causing a 50% loss in about 10 minutes as opposed to 30 minutes for the solution containing no cosolute. […]

[2] = target: T1, α-chymotrypsinogen A (aCgn); test: Preferential interaction with aCgn by vapor pressure osmometry (VPO); assay type: physicochemical, Bovine; conditions: for Γexp preferential interaction coefficient of aCgn: 0.17-[…] dendrimer salt, VPO
Method: Osmolality measurements were carried out according to the previously described procedure. For improved accuracy, all samples were prepared gravimetrically using a Mettler Toledo balance with a precision of 0.1 mg. Partial molar volume values of the
Stock solutions of both BSA and lysozyme and stock solutions of the cosolutes were each prepared in a 40 mM sodium phosphate buffer, pH 6.0 (aCgn measurements were conducted in 20 mM sodium citrate buffer, pH 3.5 or pH 5.0). Stock solutions of the cosolutes were used so that a series of samples could be easily produced with varying solute concentrations by dilution with water and buffer. The protein stock solutions were further purified by placing the solutions under dialysis for 48 hours at room temperature against two changes of buffer (1 L each). […] To determine the concentration, samples of each stock solution were diluted gravimetrically with water to a final optical density of about 1.0 and the concentration determined spectrophotometrically with a PerkinElmer Lambda 35 UV/Vis spectrometer. It should be noted that the protein stock solutions were stored at 4° C. and used within one week of their preparation.
[formula] A Wescor Vapro® vapor pressure osmometer (model 5520) was used for all osmometry measurements. The instrument was calibrated using 0.1, 0.29, and 1 mol/kg osmolality standards provided by Wescor. Due to slight drifts in the calibration points, the instrument was recalibrated after every four measurements and the thermocouple was cleaned daily using concentrated ammonium hydroxide followed by a rinse with HPLC grade water. […] The data sets for each cosolute included at least 16 individually made solutions (both for the sets with and without the protein). Each sample contained approximately 80 μL of solution (40 μL of diluted cosolute stock solution and 40 μL of the protein stock solution). A minimum of three measurements on each solution were made. If the standard deviation for a particular solution was greater than 2 mmol/kg, more measurements were taken or another sample was prepared. For a given solute, data representing the dependence of osmolality on solute molality were fitted by a quadratic equation, with all fitting parameters floated. Data were weighted by the standard deviation of the individual osmolality measurements for the same solution using the nonlinear fitting program Igor Pro.
To gain further insight into how the modified dendrimer salts inhibit protein-protein interactions, preferential interaction coefficient (Γ23) values at various concentrations were determined, both experimentally via vapor pressure osmometry (VPO) measurements and computationally via MD simulations. The experimental results for the interaction between modified generation 0 PAMAM dendrimers and aCgn are expressed in Table 2, which summarizes the polynomial fit and uncertainty of the experimental data. Theoretical preferential interaction coefficient values were computed from the MD simulation using the procedure outlined in our previous work. Baynes B M and Trout B L (2003) J Phys Chem B 107:14058-14067; Shukla D et al. (2009) J Phys Chem B 113:12546-12554.

[3] = target: T1, α-chymotrypsinogen A (aCgn); test: DSC denaturation midpoint temperature (Tm) of aCgn; assay type: physicochemical, Bovine
Method: The thermodynamic stability of aCgn in the presence of the arginine salts was determined by DSC (Microcal VP-Differential Scanning calorimeter located in the Biophysical Instrumentation Facility (BIF) at MIT). Each reading began with a minimum of three buffer-buffer up and down scans (in this case, the buffer also contains the cosolute of interest) to establish a reproducible thermal history followed by a single protein-buffer up scan. aCgn was analyzed at a concentration of 1 mg/mL in a 20 mM sodium citrate pH 5 buffer containing the cosolute of interest and a scan rate of 90° C./hour. The data was analyzed in the MicroCal Origin® plotting software. In the analysis, the last buffer-buffer reference scan was first subtracted from the data and then the data was normalized with respect to the protein concentration, cell volume, and scan rate. The baseline (which was progressed through the peak) was then subtracted from the plot and the denaturation midpoint temperature, Tm, was taken as the temperature at the peak maximum of the unfolding event. For each arginine salt, three concentrations (including zero concentration) were tested and Tm values with respect to cosolute concentration were fitted to a linear trend.
The thermostability of aCgn at 1 mg/mL in the presence of the modified dendrimers was assessed by determining the denaturation midpoint temperature (Tm) from DSC scans, which is a qualitative indicator of how the conformational stability of the protein is perturbed. Ghosh K et al. (2009) Proc Natl Acad Sci USA 106:10649-10654.

[4] = Partial molar volume from density measurements of dendrimer only solutions; assay type: physicochemical

Compound: Cl.N=C(N)NCCC[C@H](N)C(=O)O [ArgHCl, arginine hydrochloride, reference compound]
Con A t95/t95, 0 (Shelf-Life Extension Factor) (Concanavalin A (Con A)): 0.4
aCgn t95/t95, 0 (Shelf-Life Extension Factor) [1]: 3.3

Compound: N=C(N)NCCNC(=O)CCN(CCNC(=O)CCN(CCC(=O)NCCN(CCC(=O)NCCNC(=N)N)CCC(=O)NCCNC(=N)N)CCN(CCC(=O)NCCN(CCC(=O)NCCNC(=N)N)CCC(=O)NCCNC(=N)N)CCC(=O)NCCN(CCC(=O)NCCNC(=N)N)CCC(=O)NCCNC(=N)N)CCC(=O)NCCNC(=N)N.O=P(O)(O)O.O=P(O)(O)O.O=P(O)(O)O.O=P(O)(O)O.O=P(O)(O)O.O=P(O)(O)O.O=P(O)(O)O.O=P(O)(O)O.O=P(O)(O)O.O=P(O)(O)O.O=P(O)(O)O.O=P(O)(O)O.O=P(O)(O)O.O=P(O)(O)O [Dend. 1 Gdm(H2PO4)]
aCgn aggregation suppression compared with other salt forms / generations (FIG. 5, 6, 8) [1]: lower for all concentrations
aCgn t95/t95, 0 (Shelf-Life Extension Factor) [1]: 16.3

Compound: N=C(N)NCCNC(=O)CCN(CCNC(=O)CCN(CCC(=O)NCCN(CCC(=O)NCCNC(=N)N)CCC(=O)NCCNC(=N)N)CCN(CCC(=O)NCCN(CCC(=O)NCCNC(=N)N)CCC(=O)NCCNC(=N)N)CCC(=O)NCCN(CCC(=O)NCCNC(=N)N)CCC(=O)NCCNC(=N)N)CCC(=O)NCCNC(=N)N.O=S(=O)(O)O.O=S(=O)(O)O.O=S(=O)(O)O.O=S(=O)(O)O.O=S(=O)(O)O.O=S(=O)(O)O.O=S(=O)(O)O [Dend. 1 Gdm(SO4)1/2]
Con A t95/t95, 0 (Shelf-Life Extension Factor) (Concanavalin A (Con A)): 16.7
Con A t95/t95, 0 (Shelf-Life Extension Factor) (Concanavalin A (Con A); listed as generation 1 dendrimer with a guanidinium sulfate surface): greater than 15
Con A t95/t95, 0 (Shelf-Life Extension Factor) (Concanavalin A (Con A); listed as sulfate form of the generation 1 modified dendrimer): 16.7
Con A shelf-life, times longer than with glycerol or sucrose (Concanavalin A (Con A); pH 6.5, 37° C.): over 10 times

Compound: Cl.Cl.Cl.Cl.Cl.Cl.N=C(N)NCCNC(=O)CCN(CCC(=O)NCCNC(=N)N)CCN(CCC(=O)NCCNC(=N)N)CCC(=O)NCCNC(=N)N [GdmCl, Generation 0 Polyamidoamine (PAMAM) dendrimer with a surface modified to guanidinium]
Γ23/[3] preferential interaction with aCgn ([2]; 50 mg/mL aCgn, 20 mM sodium citrate pH 5, maximum dendrimer 0.2 mol/L): −8.1 ± 3.6 mol/mol
Γexp preferential interaction coefficient of aCgn [2]: −1.5
Γexp preferential interaction coefficient of aCgn ([2]; listed as chloride salt): −1.5±0.7
rate of lowering the melting temperature of aCgn relative to ordinary GdmCl [3]: double
dTm/d[3] aCgn denaturation midpoint temperature increment ([3]; 1 mg/mL aCgn, 20 mM sodium citrate pH 5, maximum dendrimer 0.2 mol/L): −13.9 K * L/mol
rate of decrease of Tm of aCgn ([3]; concentrations less than 0.2 mol/L): 13.9 ° C.*M^−1
V0 partial molar volume at infinite dilution [4]: 0.5217 L/mol
rate of aCgn monomer loss compared to the reference solution [1]: slower
time for 50% loss of aCgn monomer ([1]; additive 0.2 M, no cosolute 30 minutes): about 10 minutes

Compound: OCC(O)CO [Glycerol, reference compound]
Con A t95/t95, 0 (Shelf-Life Extension Factor) (Concanavalin A (Con A)): 1.3

Compound: O=S(=O)([O-])[O-].[Na+].[Na+] [Na2SO4, sodium sulfate, reference compound]
aCgn t95/t95, 0 (Shelf-Life Extension Factor) [1]: 3.1

aCgn t95/t95, 0 (Shelf-Life Extension Factor) [1]: 1.9
Compound: OC[C@H]1O[C@@](CO)(O[C@H]2O[C@H](CO)[C@@H](O)[C@H](O)[C@H]2O)[C@@H](O)[C@@H]1O [Sucrose, reference compound]

Compound: CC(=O)O [acetate]
aCgn aggregation suppression compared with other salt forms / generations (FIG. 5, 6, 8) [1]: moderately improves the performance; also recorded: only improved slightly

Compound: Generation 1 PAMAM Dendrimer, Ethylene Diamine Core, with Guanidinium Chloride Surface Groups [G1-Gdn]
rate of aCgn monomer loss compared to the reference solution [1]: large increase in the rate of aggregation
